The source of these data is paper PMC5784158, “New 2-Aryl-9-methyl-β-carbolinium salts as Potential Acetylcholinesterase Inhibitor agents: Synthesis, Bioactivity and Structure–Activity Relationship” (Scientific Reports, 2018).

Where two headings read alike, the source gives them in different places.

One assay addresses T1, BuChE (Equus caballus, UniProt P81908).
T1 construct: BuChE (E.C. 3.1.1.8) (BR, 20 u/mg) from horse serum; purchased Shanghai Yuanye biological technology Co. Ltd (Shanghai, China); host or cells: horse serum (tissue-derived)
Put plainly: BuChE inhibition, Ellman's method. The class given is biochemical, horse. As to conditions: read-out: IC50 ± S.D BuChE. The text has this:
There is increasing recognition that BuChE may play an important role in cholinergic transmission[15],[16]. While the level of AChE decreases dramatically in the advanced stage of AD, BuChE increases in brain regions involved in cognitive functions[17],[18]. At this point, BuChE is able to compensate for AChE loss by hydrolyzing ACh. These observations lead one to believe that inhibition of both AChE and BuChE may contribute to improvement of current symptomatic treatments of AD. Therefore, the compounds in Table 2 were also evaluated for BuChE inhibition activity by means of Ellman’s method. […] AChE (E.C. 3.1.1.7) (BR, 200 u/mg) from fly’s head and BuChE (E.C. 3.1.1.8) (BR, 20 u/mg) from horse serum were purchased from Shanghai Yuanye biological technology Co. Ltd (Shanghai, China).
(§1) The inhibitory activities of the compounds against AChE were evaluated according to Ellman’s coupled enzyme assay[47] with the following modifications. 90 μL potassium phosphate buffer (PBS, 0.1 M, pH 7.4), 10 μL the solution of 2 units/mL AChE in 0.1 M PBS (pH 7.4) and 10 μL the solution of 200 μM test compounds in the mixed solution of methanol-PBS (pH 7.4) (1:9, V/V) were added to each well of a 96-well plate. The methanol-PBS solution was used as a blank control. After incubation at room temperature for 10 min, 60 μL the solution of 10 mM DTNB in PBS was added into each the well. The plate was placed on crushed ices and cooled for 20 min. To each the well was added 30 μL the solution of 7.5 mM ATCh in PBS (pH 7.4). […] Each test was performed in triplicate. Inhibition rates of the enzyme were calculated relative to a control sample. The inhibitory activities against BuChE were measured as described above for AChE, using 0.7 unit/mL BuChE and 4 mM BuTCh instead of AChE and ATCh as the enzyme and substrate, respectively.
(§2) The probit value of the average inhibition rate for each test concentration and the corresponding lg[concentration] were used to establish enzyme inhibition regression equation by the linear least-square fitting method. IC50 values were calculated from the equations.
For orientation: Ellman's reagent forms a yellow product with free thiols.

In another assay the target is AChE (Musca domestica, UniProt Q7YWJ9). The assay is described as follows: biochemical. The class given is biochemical, fly. As to conditions: for Inhibition rate (%): test concentration of the compound 10 μM. The procedure: AChE (E.C. 3.1.1.7) (BR, 200 u/mg) from fly’s head and BuChE (E.C. 3.1.1.8) (BR, 20 u/mg) from horse serum were purchased from Shanghai Yuanye biological technology Co. Ltd (Shanghai, China).
Chain of AChE (Q7YWJ9 81-659): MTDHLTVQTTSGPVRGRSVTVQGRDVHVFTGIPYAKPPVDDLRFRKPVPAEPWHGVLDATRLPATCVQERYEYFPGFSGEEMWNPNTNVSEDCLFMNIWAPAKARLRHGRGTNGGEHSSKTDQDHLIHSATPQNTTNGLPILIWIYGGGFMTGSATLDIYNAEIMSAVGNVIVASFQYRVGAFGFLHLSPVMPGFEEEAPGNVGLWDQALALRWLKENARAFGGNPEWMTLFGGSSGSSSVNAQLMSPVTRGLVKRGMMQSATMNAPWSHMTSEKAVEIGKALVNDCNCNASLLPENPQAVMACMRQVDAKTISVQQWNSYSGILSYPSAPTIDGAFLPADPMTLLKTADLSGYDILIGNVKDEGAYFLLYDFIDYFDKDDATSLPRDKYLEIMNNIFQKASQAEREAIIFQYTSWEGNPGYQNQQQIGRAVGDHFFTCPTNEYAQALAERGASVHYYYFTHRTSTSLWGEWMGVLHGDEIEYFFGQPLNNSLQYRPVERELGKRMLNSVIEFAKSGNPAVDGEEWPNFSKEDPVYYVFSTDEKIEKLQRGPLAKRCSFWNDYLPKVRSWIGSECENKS
as §1, §2

Setting [1] is: Estimated values based on the results in Table 1 (inhibition rate at 10 μM), read-out: IC50 AChE, estimated values.

T1 sequence (P81908 whole entry): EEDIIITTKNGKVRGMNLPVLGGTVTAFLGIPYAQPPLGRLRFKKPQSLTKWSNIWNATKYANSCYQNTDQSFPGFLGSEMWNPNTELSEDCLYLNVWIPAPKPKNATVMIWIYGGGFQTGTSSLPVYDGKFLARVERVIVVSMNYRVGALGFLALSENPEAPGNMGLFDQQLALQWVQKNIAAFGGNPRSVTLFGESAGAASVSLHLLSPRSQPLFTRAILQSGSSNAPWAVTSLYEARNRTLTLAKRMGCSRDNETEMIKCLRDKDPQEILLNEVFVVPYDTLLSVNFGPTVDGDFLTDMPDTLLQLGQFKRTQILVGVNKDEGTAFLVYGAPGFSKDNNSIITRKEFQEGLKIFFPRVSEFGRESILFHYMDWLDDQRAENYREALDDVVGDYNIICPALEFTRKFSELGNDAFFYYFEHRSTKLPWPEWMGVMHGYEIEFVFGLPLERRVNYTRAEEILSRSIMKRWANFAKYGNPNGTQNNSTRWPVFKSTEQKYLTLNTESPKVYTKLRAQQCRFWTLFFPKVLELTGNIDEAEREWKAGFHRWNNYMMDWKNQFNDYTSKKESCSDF

One may read the IC50 as the concentration at which inhibition is half-maximal. With `Cn1c2ccccc2c2cc[n+](-c3ccc(Br)cc3)cc21.[Br-]` [Compound B10, 9-Methyl-2-(4-bromophenyl)-β-carboline bromide], the IC50 on BuChE was 55.4 ± 1.73 µM. At AChE, the “SI: selectivity index, ratio IC50 (BuChE)/IC50 (AChE)” value (shortened to “SI: selectivity index, ratio IC50”) worked out at 128.8 and the “Inhibition rate (%)” value was determined as 95.4 ± 0.8 ab %. Moreover, the IC50 at AChE (read-out: IC50 ± S.D AChE) came out at 0.43 ± 0.04 µM.
For the molecule `Cn1c2ccccc2c2cc[n+](-c3ccc(O)cc3)cc21.[Br-]` [Compound B16, 9-Methyl-2-(4-hydroxyhenyl)-β-carboline bromide], at BuChE, the IC50 was 67.9 ± 11.5 µM. At AChE, the “SI: selectivity index, ratio IC50” value turned out to be 45.3 and the “Inhibition rate (%)” value turned out to be 82.1 ± 2.5 ij %. In addition, the IC50 at AChE (read-out: IC50 ± S.D AChE) amounted to 1.5 ± 0.19 µM.
Regarding `Cn1c2c(c3ccccc31)CC[N+](c1ccc(Cl)cc1)=C2.[Br-]` [Compound A7], the IC50 on BuChE is 42.2 ± 0.86 µM. Moreover, on AChE, the “SI: selectivity index, ratio IC50” value was determined as 5.57 and the “Inhibition rate (%)” value was 60.1 ± 2.9 d %. At AChE (read-out: IC50 ± S.D AChE), the IC50 came to 7.58 ± 1.29 µM.
For `Cc1cccc(-[n+]2ccc3c4ccccc4n(C)c3c2)c1.[Br-]` [Compound B21, 9-Methyl-2-(3-methylphenyl)-β-carboline bromide], in that order: 68.6 ± 8.06 µM, 13.6, 72.4 ± 3.9 l % and 5.05 ± 0.26 µM.
As to `Cn1c2ccccc2c2cc[n+](-c3cccc(C#N)c3)cc21.[Br-]` [Compound B24, 9-Methyl-2-(3-cyanophenyl)-β-carboline bromide], at BuChE, the IC50 is 212 ± 17.4 µM. At AChE, the “SI: selectivity index, ratio IC50” value is on record as 20.6 and the “Inhibition rate (%)” value stood at 50.7 ± 2.2 pq %. In addition, the IC50 at AChE (read-out: IC50 ± S.D AChE) is 10.3 ± 0.6 µM.
`COc1ccc2c(c1)c1c(n2C)C=[N+](c2ccccc2)CC1.[Br-]` [Compound A34]: on BuChE, the IC50 was 37.6 ± 2.84 µM. In addition, at AChE, the “SI: selectivity index, ratio IC50” value is recorded as 18.4 and the “Inhibition rate (%)” value is on record as 68.4 ± 2.8 c %. The IC50 on AChE (read-out: IC50 ± S.D AChE) is 2.04 ± 0.33 µM.
As to `Cn1c2ccccc2c2cc[n+](-c3ccc(I)cc3)cc21.[Br-]` [Compound B13, 9-Methyl-2-(4-iodohenyl)-β-carboline bromide], the IC50 on BuChE was 40.4 ± 1.83 µM. On AChE, the “SI: selectivity index, ratio IC50” value amounted to 168.3 and the “Inhibition rate (%)” value was found to be 93.8 ± 0.4 abcd %.
On to `Cn1c2c(c3ccccc31)CC[N+](c1cccc(O)c1)=C2.[Br-]` [Compound A15], for which the IC50 at BuChE was 10 ± 0.59 µM. At AChE, the “SI: selectivity index, ratio IC50” value turned out to be 1.63 and the “Inhibition rate (%)” value turned out to be 51.8 ± 9.1 fg %. In addition, the IC50 on AChE (read-out: IC50 ± S.D AChE) amounted to 6.12 ± 0.61 µM.
As for `Cn1c2c(c3ccccc31)CC[N+](c1ccc(Br)cc1)=C2.[Br-]` [Compound A10], the IC50 at BuChE was determined as 76.2 ± 11 µM. Further, on AChE, the “SI: selectivity index, ratio IC50” value came to 11.2 and the “Inhibition rate (%)” value is reported as 60.3 ± 1.6 d %. Moreover, at AChE (read-out: IC50 ± S.D AChE), the IC50 is 6.79 ± 2.29 µM.
For the molecule `Cn1c2ccccc2c2cc[n+](-c3cccc(O)c3)cc21.[Br-]` [Compound B15, 9-Methyl-2-(3-hydroxyhenyl)-β-carboline bromide], the half-maximal inhibitory concentration (IC50) on BuChE came out at 29.6 ± 2.48 µM. At AChE, the “SI: selectivity index, ratio IC50” value stood at 7.60 and the “Inhibition rate (%)” value was 72.1 ± 1.8 l %. The IC50 at AChE (read-out: IC50 ± S.D AChE) was 3.92 ± 0.3 µM.
For `COc1ccc([N+]2=Cc3c(c4ccccc4n3C)CC2)cc1.[Br-]` [Compound A19] the same measures were 137 ± 0.79 µM, 46.9, 66.1 ± 0.5 c % and 2.92 ± 0.28 µM.
In the case of `CC(C)Cn1c2c(c3ccccc31)CC[N+](c1ccccc1)=C2.[Br-]` [Compound A43], the IC50 on AChE (setting [1]) was above 10 µM. For the same molecule, the “Inhibition rate (%)” value at AChE is on record as 46.5 ± 1.9 ghi %.
For `Cn1c2ccccc2c2cc[n+](-c3ccc(C#N)cc3)cc21.[Br-]` [Compound B25, 9-Methyl-2-(4-cyanophenyl)-β-carboline bromide] the same measures were above 10 µM and 36.8 ± 0.8 t %.
For `Cn1c2ccccc2c2cc[n+](-c3ccccc3I)cc21.[Br-]` [Compound B11, 9-Methyl-2-(2-iodohenyl)-β-carboline bromide] the same measures were above 10 µM and 43.3 ± 1.8 r %.
On to `COc1ccc2c(c1)c1cc[n+](-c3ccccc3)cc1n2C.[Br-]` [Compound B34, 6-Methoxy-9-methyl-2-phenyl-β-carboline bromide], for which, at AChE (read-out: IC50 ± S.D AChE), the IC50 is 0.94 ± 0.23 µM. Besides, the “Inhibition rate (%)” value on AChE was determined as 85.7 ± 2.5 ghi %.
Consider `Cn1c2c(c3ccccc31)CC[N+](c1ccc(Br)cc1Br)=C2.[Br-]` [Compound A33], for which, on AChE (10 μM, read-out: IC50 AChE, NA), the IC50 is above 10 µM. Further, the “Inhibition rate (%)” value on AChE is given as “no activity”; on AChE (10 µM), −7.0 ± 8.3 vw %.
On to `Cn1c2c(c3ccccc31)CC[N+](c1ccc(C#N)cc1)=C2.[Br-]` [Compound A25], for which the IC50 on AChE (setting [1]) was above 10 µM. For the same molecule, at AChE, the “Inhibition rate (%)” value was 15.6 ± 1.8 mnop %.
For `Br.c1ccc(-n2ccc3c4ccccc4nc-3c2)cc1` [Compound B46, 2-Phenyl-β-carboline bromide], at AChE (read-out: IC50 ± S.D AChE), the IC50 worked out at 18 ± 2.42 µM. Also, on AChE, the “Inhibition rate (%)” value was 43.0 ± 1.8 r %.
As to `Cn1c2ccccc2c2cc[n+](-c3cccc(Br)c3)cc21.[Br-]` [Compound B9, 9-Methyl-2-(3-bromophenyl)-β-carboline bromide], the half-inhibitory concentration (IC50) on AChE (setting [1]) is around 10 µM. Also, the “Inhibition rate (%)” value on AChE stood at 48.8 ± 6.6 q %.
As for `Cc1ccccc1[N+]1=Cc2c(c3ccccc3n2C)CC1.[Br-]` [Compound A20], the IC50 on AChE (setting [1]) is above 10 µM. The “Inhibition rate (%)” value at AChE came to 44.3 ± 1.7 j %.
Regarding `CC(C)Cn1c2ccccc2c2cc[n+](-c3ccccc3)cc21.[Br-]` [Compound B43, 9-Iso-butyl-2-phenyl-β-carboline bromide], the IC50 at AChE (read-out: IC50 ± S.D AChE) came to 0.98 ± 0.03 µM. The “Inhibition rate (%)” value at AChE is 84.1 ± 0.6 hi %.
With `CCOC(=O)Cn1c2c(c3ccccc31)CC[N+](c1ccccc1)=C2.[Br-]` [Compound A45], the IC50 on AChE (setting [1]) is above 10 µM. Further, at AChE, the “Inhibition rate (%)” value came out at 38.8 ± 4.6 j %.
For `Cn1c2ccccc2c2cc[n+](-c3cccc(C(F)(F)F)c3)cc21.[Br-]` [Compound B26, 9-Methyl-2-(3-trifluoromethylphenyl)-β-carboline bromide] the same measures were above 10 µM and 41.0 ± 1.9 rs %.
With `Cn1c2ccccc2c2cc[n+](-c3cc(Cl)cc(Cl)c3)cc21.[Br-]` [Compound B31, 9-Methyl-2-(3,5-dichlorophenyl)-β-carboline bromide], the 50% inhibitory concentration (IC50) at AChE (setting [1]) was above 10 µM. Moreover, on AChE, the “Inhibition rate (%)” value amounted to 18.9 ± 2.5 v %.
For `Cn1c2c(c3ccccc31)CC[N+](c1cccc(Cl)c1)=C2.[Br-]` [Compound A6], in that order: above 10 µM and 19.3 ± 4.0 lm %.
With `CC(C)n1c2ccccc2c2cc[n+](-c3ccccc3)cc21.[Br-]` [Compound B40, 9-Iso-propyl-2-phenyl-β-carboline bromide], at AChE (read-out: IC50 ± S.D AChE), the IC50 was found to be 0.54 ± 0.16 µM. Further, on AChE, the “Inhibition rate (%)” value is recorded as 86.9 ± 0.8 fgh %.
As for `Cn1c2c(c3ccccc31)CC[N+](c1cccc(I)c1)=C2.[Br-]` [Compound A12], the IC50 at AChE (setting [1]) was above 10 µM. At AChE, the “Inhibition rate (%)” value was 10.1 ± 2.8 pqr %.
For `Cn1c2c(c3ccccc31)CC[N+](c1ccc(C(F)(F)F)cc1)=C2.[Br-]` [Compound A27], in that order: above 10 µM and 28.4 ± 1.0 k %.
For `Cn1c2ccccc2c2cc[n+](-c3ccccc3Cl)cc21.[Br-]` [Compound B5, 9-Methyl-2-(2-chlorophenyl)-β-carboline bromide] the same measures were above 10 µM and 38.5 ± 1.9 st %.
For `Cn1c2cc(F)ccc2c2cc[n+](-c3ccccc3)cc21.[Br-]` [Compound B36, 7-Fluoro-9-methyl-2-phenyl-β-carboline bromide], the IC50 at AChE (read-out: IC50 ± S.D AChE) worked out at 2.61 ± 0.51 µM. Also, the “Inhibition rate (%)” value on AChE is 76.2 ± 1.1 k %.
For the molecule `Cn1c2c(c3ccccc31)CC[N+](c1ccccc1I)=C2.[Br-]` [Compound A11], at AChE (10 μM, read-out: IC50 AChE, NA), the IC50 was above 10 µM. Further, on AChE, the “Inhibition rate (%)” value is listed as −10.6 ± 3.0 w %.
